Calls of active or inactive are those of the source. No cut-off for these calls is given here.
Assays:
[1] = molecular target: T1, Protein cereblon/E3 ubiquitin-protein ligase XIAP (Homo sapiens) (UniProt P98170+Q96SW2); assay: PROTAC activity at CRBN/XIAP in human MCF7 cells assessed as induction of XIAP degradation at 0.1 uM measured after 18 hrs by western blot analysis; assay type: cell-based
[2] = molecular target: T1, Protein cereblon/E3 ubiquitin-protein ligase XIAP (Homo sapiens); assay: PROTAC activity at CRBN/XIAP in human MCF7 cells assessed as induction of XIAP degradation at 1 uM measured after 18 hrs by western blot analysis; assay type: cell-based
[3] = molecular target: T2, Protein cereblon/Baculoviral IAP repeat-containing protein 3 (Homo sapiens) (UniProt Q13489+Q96SW2); assay: PROTAC activity at CRBN/cIAP2 in human MCF7 cells assessed as induction of cIAP2 degradation at 0.1 uM measured after 18 hrs by western blot analysis; assay type: cell-based
T2 sequence (Q13489 whole entry, looked up): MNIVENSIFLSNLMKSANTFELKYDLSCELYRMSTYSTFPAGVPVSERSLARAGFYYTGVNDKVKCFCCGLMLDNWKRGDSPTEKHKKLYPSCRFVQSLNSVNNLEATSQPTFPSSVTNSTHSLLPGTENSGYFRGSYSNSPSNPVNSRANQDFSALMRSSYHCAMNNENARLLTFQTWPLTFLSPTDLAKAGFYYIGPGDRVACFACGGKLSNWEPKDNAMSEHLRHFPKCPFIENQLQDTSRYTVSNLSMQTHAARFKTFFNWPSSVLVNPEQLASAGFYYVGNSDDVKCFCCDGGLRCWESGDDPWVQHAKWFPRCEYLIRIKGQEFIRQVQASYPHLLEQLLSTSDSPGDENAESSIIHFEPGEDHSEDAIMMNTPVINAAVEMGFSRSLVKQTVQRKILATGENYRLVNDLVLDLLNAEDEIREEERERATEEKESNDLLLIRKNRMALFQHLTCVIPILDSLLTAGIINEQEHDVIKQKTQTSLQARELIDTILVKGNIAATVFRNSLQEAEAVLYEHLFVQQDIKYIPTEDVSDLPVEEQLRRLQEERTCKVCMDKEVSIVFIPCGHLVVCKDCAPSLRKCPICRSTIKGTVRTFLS
T2 sequence (Q96SW2 whole entry, looked up): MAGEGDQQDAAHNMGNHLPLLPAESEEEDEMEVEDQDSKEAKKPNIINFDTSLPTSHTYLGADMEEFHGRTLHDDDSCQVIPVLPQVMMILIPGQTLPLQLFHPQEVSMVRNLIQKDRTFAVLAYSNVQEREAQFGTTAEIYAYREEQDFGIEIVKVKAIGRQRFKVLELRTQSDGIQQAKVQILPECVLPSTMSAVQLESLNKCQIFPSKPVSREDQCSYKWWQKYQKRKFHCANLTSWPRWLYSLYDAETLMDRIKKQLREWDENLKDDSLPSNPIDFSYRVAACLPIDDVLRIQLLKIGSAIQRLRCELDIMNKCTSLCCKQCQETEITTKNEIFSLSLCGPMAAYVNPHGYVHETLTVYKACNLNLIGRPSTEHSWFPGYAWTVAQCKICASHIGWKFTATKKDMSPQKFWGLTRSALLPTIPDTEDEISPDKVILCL

[4] = molecular target: T2, Protein cereblon/Baculoviral IAP repeat-containing protein 3 (Homo sapiens); assay: PROTAC activity at CRBN/cIAP2 in human MCF7 cells assessed as induction of cIAP2 degradation at 1 uM measured after 18 hrs by western blot analysis; assay type: cell-based
[5] = molecular target: Baculoviral IAP repeat-containing protein 2 (Homo sapiens) (UniProt Q13490); assay: Induction of cIAP1 degradation in human MCF7 cells at 0.1 uM measured after 18 hrs by western blot analysis; assay type: cell-based
Sequence of Baculoviral IAP repeat-containing protein 2 (Homo sapiens) (Q13490 whole entry): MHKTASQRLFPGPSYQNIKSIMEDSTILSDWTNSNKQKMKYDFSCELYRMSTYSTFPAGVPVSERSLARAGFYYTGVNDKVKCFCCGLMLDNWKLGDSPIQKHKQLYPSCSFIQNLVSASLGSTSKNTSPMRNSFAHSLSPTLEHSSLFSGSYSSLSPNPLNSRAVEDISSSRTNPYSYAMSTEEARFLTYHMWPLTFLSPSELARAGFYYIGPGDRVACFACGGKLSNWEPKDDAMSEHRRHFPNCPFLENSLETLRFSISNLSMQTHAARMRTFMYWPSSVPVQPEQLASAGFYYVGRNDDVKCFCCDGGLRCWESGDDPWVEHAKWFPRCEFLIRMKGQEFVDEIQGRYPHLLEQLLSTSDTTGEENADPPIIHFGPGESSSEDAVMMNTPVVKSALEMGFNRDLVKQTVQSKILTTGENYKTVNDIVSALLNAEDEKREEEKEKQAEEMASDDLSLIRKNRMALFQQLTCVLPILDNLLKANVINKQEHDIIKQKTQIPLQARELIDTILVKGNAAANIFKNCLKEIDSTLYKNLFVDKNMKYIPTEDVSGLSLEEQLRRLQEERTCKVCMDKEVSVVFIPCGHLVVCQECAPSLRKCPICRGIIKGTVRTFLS

[6] = molecular target: Baculoviral IAP repeat-containing protein 2 (Homo sapiens) (UniProt Q13490); assay: Induction of cIAP1 degradation in human MCF7 cells at 1 uM measured after 18 hrs by western blot analysis; assay type: cell-based
[7] = molecular target: Protein cereblon (Homo sapiens) (UniProt Q96SW2); assay: Induction of CRBN degradation in human MCF7 cells by western blot analysis; assay type: cell-based
Sequence of Protein cereblon (Homo sapiens) (Q96SW2 whole entry): as the sequence (Q96SW2 whole entry, looked up) above

[8] = molecular target: Baculoviral IAP repeat-containing protein 2 (Homo sapiens) (UniProt Q13490); assay: Induction of cIAP1 degradation in human MCF7 cells by western blot analysis; assay type: cell-based
[9] = molecular target: Baculoviral IAP repeat-containing protein 3 (Homo sapiens) (UniProt Q13489); assay: Induction of cIAP2 degradation in human MCF7 cells by western blot analysis; assay type: cell-based
Sequence of Baculoviral IAP repeat-containing protein 3 (Homo sapiens) (Q13489 whole entry): as the sequence (Q13489 whole entry, looked up) above

MCF7 [10] = assay: Induction of apoptosis in human MCF7 cells assessed as increase in caspase 7 cleavage at 0.1 uM measured after 18 hrs by western blot analysis; assay type: functional, cell-based
MCF7 [11] = assay: Induction of apoptosis in human MCF7 cells assessed as increase in PARP cleavage at 0.1 uM measured after 18 hrs by western blot analysis; assay type: functional, cell-based
MCF7 [12] = assay: Induction of apoptosis in human MCF7 cells assessed as increase in total apoptotic cells at 1 uM measured after 48 hrs by AnnexinV-FITC/PI staining based flow cytometry; assay type: functional
MCF7 [13] = assay: Cytotoxicity against human MCF7 cells assessed as inhibition of cell growth measured after 72 hrs by CellTiter-Glo luminescent assay; assay type: functional
SK-OV-3 = assay: Cytotoxicity against human SK-OV-3 cells assessed as inhibition of cell growth measured after 72 hrs by CellTiter-Glo luminescent assay; assay type: functional, cell-based
[14] = molecular target: T3, Protein cereblon-IAP (Homo sapiens) (UniProt P98170+Q13489+Q13490+Q96SW2); assay: PROTAC activity at CRBN/IAP in human MCF7 cells assessed as inhibition of TNFalpha-induced NFkappaB activation by measuring decrease in IKKalpha/beta phosphorylation at 0.1 uM pretreated for 2 hrs followed by stimulation with TNF-alpha for 3 mins by western blot analysis; assay type: cell-based; conditions: time 123.0 min
T3 sequence (P98170 whole entry, looked up): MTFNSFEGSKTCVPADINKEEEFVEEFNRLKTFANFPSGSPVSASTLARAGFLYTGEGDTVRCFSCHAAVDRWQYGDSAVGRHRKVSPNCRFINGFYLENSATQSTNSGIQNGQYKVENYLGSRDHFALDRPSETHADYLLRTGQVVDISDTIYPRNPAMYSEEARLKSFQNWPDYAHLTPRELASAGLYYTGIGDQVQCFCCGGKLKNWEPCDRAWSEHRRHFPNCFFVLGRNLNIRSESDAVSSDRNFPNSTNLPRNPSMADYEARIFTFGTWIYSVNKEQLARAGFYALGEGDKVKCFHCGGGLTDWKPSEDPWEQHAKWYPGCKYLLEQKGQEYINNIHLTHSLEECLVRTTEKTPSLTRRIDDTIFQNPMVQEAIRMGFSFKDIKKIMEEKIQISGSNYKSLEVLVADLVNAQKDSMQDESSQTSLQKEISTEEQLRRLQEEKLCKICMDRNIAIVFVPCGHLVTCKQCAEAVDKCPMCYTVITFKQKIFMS
T3 sequence (Q13489 whole entry, looked up): as the sequence (Q13489 whole entry, looked up) above
T3 sequence (Q13490 whole entry, looked up): as the sequence (Q13490 whole entry) above
T3 sequence (Q96SW2 whole entry, looked up): as the sequence (Q96SW2 whole entry, looked up) above

[15] = molecular target: T3, Protein cereblon-IAP (Homo sapiens); assay: PROTAC activity at CRBN/IAP in human MCF7 cells assessed as inhibition of TNFalpha-induced NFkappaB activation by measuring decrease in IkBalpha phosphorylation at 0.1 uM pretreated for 2 hrs followed by stimulation with TNF-alpha for 3 mins by western blot analysis; assay type: cell-based; conditions: time 123.0 min
[16] = molecular target: T3, Protein cereblon-IAP (Homo sapiens); assay: PROTAC activity at CRBN/IAP in human MCF7 cells assessed as inhibition of TNFalpha-induced NFkappaB activation by measuring decrease in p65 phosphorylation at 0.1 uM pretreated for 2 hrs followed by stimulation with TNF-alpha for 3 mins by western blot analysis; assay type: cell-based; conditions: time 123.0 min
[17] = molecular target: T3, Protein cereblon-IAP (Homo sapiens); assay: PROTAC activity at CRBN/IAP in human MCF7 cells assessed as inhibition of TNFalpha-induced NFkappaB activation by measuring decrease in p38 phosphorylation at 0.1 uM pretreated for 2 hrs followed by stimulation with TNF-alpha for 3 mins by western blot analysis; assay type: cell-based; conditions: time 123.0 min
MDA-MB-231 [18] = assay: Inhibition of TNFalpha-induced cell migration in human MDA-MB-231 cells at 0.1 uM measured after 24 hrs in presence of TNFalpha by transwell assay; assay type: functional, cell-based
MDA-MB-231 [19] = assay: Inhibition of TNFalpha-induced cell invasion in human MDA-MB-231 cells at 0.1 uM measured after 24 hrs in presence of TNFalpha by transwell assay; assay type: functional, cell-based
MDA-MB-157 [20] = assay: Inhibition of TNFalpha-induced cell migration in human MDA-MB-157 cells at 0.1 uM measured after 24 hrs in presence of TNFalpha by transwell assay; assay type: functional, cell-based
MDA-MB-157 [21] = assay: Inhibition of TNFalpha-induced cell invasion in human MDA-MB-157 cells at 0.1 uM measured after 24 hrs in presence of TNFalpha by transwell assay; assay type: functional, cell-based
[22] = molecular target: T2, Protein cereblon/Baculoviral IAP repeat-containing protein 3 (Homo sapiens); assay: PROTAC activity at CRBN/cIAP2 in human MCF7 cells assessed as induction of cIAP2 degradation by western blot analysis; assay type: cell-based

T1 sequence (P98170 whole entry, looked up): as the sequence (P98170 whole entry, looked up) above
T1 sequence (Q96SW2 whole entry, looked up): as the sequence (Q96SW2 whole entry, looked up) above

SMILES	Activity [1]	Activity [2]	Activity [3]	Activity [4]	Activity [5]	Activity [6]	Activity [7]	other results
CN[C@@H](C)C(=O)N[C@H](C(=O)N1Cc2cc(OCCCCCNC(=O)C3CN(c4ccc5c(c4)C(=O)N(C4CCC(=O)NC4=O)C5=O)C3)ccc2C[C@H]1C(=O)N[C@@H]1CCCc2ccccc21)C(C)(C)C (some centres undefined)	56%	39%	100%	100%	92%	89%	inactive	–
CN[C@@H](C)C(=O)N[C@H](C(=O)N1Cc2cc(OCCOCCNC(=O)C3CCN(c4ccc5c(c4)C(=O)N(C4CCC(=O)NC4=O)C5=O)CC3)ccc2C[C@H]1C(=O)N[C@@H]1CCCc2ccccc21)C(C)(C)C (some centres undefined)	0%	0%	99%	94%	94%	93%	inactive	–
CNC(C)C(=O)NC(C(=O)N1Cc2cc(OCCCCCNc3ccc4c(c3)C(=O)N(C3CCC(=O)NC3=O)C4=O)ccc2C[C@H]1C(=O)NC1CCCc2ccccc21)C(C)(C)C (single isomer, unassigned)	67%	58%	100%	98%	97%	98%	inactive	–
CN[C@@H](C)C(=O)N[C@H](C(=O)N1Cc2cc(OCCCCCNc3cccc4c3C(=O)N(C3CCC(=O)NC3=O)C4=O)ccc2C[C@H]1C(=O)N[C@@H]1CCCc2ccccc21)C(C)(C)C (some centres undefined)	81%	65%	100%	100%	94%	92%	inactive	–
CN[C@@H](C)C(=O)N[C@H](C(=O)N1Cc2cc(OCCCNC(=O)C3CCN(c4ccc5c(c4)C(=O)N(C4CCC(=O)NC4=O)C5=O)CC3)ccc2C[C@H]1C(=O)N[C@@H]1CCCc2ccccc21)C(C)(C)C (some centres undefined)	52%	13%	97%	100%	92%	95%	inactive	–
CN[C@@H](C)C(=O)N[C@H](C(=O)N1Cc2cc(OCCCCCNC(=O)COc3ccc4c(c3)C(=O)N(C3CCC(=O)NC3=O)C4=O)ccc2C[C@H]1C(=O)N[C@@H]1CCCc2ccccc21)C(C)(C)C (some centres undefined)	83%	73%	100%	100%	89%	91%	inactive	–
CN[C@@H](C)C(=O)N[C@H](C(=O)N1Cc2cc(OCCCCCNC(=O)C3CCN(c4ccc5c(c4)C(=O)N(C4CCC(=O)NC4=O)C5=O)CC3)ccc2C[C@H]1C(=O)N[C@@H]1CCCc2ccccc21)C(C)(C)C (some centres undefined)	90%	78%	97%	100%	91%	93%	inactive	–
CN[C@@H](C)C(=O)N[C@H](C(=O)N1Cc2cc(OCCCCCCCCNC(=O)C3CN(c4ccc5c(c4)C(=O)N(C4CCC(=O)N(C)C4=O)C5=O)C3)ccc2C[C@H]1C(=O)N[C@@H]1CCCc2ccccc21)C(C)(C)C (some centres undefined)	–	–	–	–	–	–	–	Activity [8]: Active; Activity [9]: Active; Activity (MCF7 [10]): Active; Activity (MCF7 [11]): Active; Activity (MCF7 [12]): 32%; GI50 (MCF7 [13]): 77.8 µM; Activity (SK-OV-3): Active; Activity [14]: inactive; Activity [15]: inactive; Activity [16]: inactive; Activity [17]: inactive; inhibition (MDA-MB-231 [18]): Active; inhibition (MDA-MB-231 [19]): Active; inhibition (MDA-MB-157 [20]): Active; inhibition (MDA-MB-157 [21]): Active
CN[C@@H](C)C(=O)N[C@H](C(=O)N1Cc2cc(OCCCCCCCCNC(=O)C3CCN(c4ccc5c(c4)C(=O)N(C4CCC(=O)NC4=O)C5=O)CC3)ccc2C[C@H]1C(=O)N[C@@H]1CCCc2ccccc21)C(C)(C)C (some centres undefined)	95%	82%	98%	99%	96%	97%	inactive	–
CN[C@@H](C)C(=O)N[C@H](C(=O)N1Cc2cc(O)ccc2C[C@H]1C(=O)N[C@@H]1CCCc2ccccc21)C(C)(C)C	0%	0%	100%	100%	93%	95%	inactive	Activity [8]: Active; Activity [22]: Active; Activity (MCF7 [10]): Active; Activity (MCF7 [11]): Active; Activity (MCF7 [12]): 31%; GI50 (MCF7 [13]): > 500 µM; Activity (SK-OV-3): Active
CN[C@@H](C)C(=O)N[C@H](C(=O)N1Cc2cc(OCCCCCNC(=O)C3CCN(c4cccc5c4C(=O)N(C4CCC(=O)NC4=O)C5=O)CC3)ccc2C[C@H]1C(=O)N[C@@H]1CCCc2ccccc21)C(C)(C)C (some centres undefined)	91%	78%	99%	90%	93%	91%	inactive	–
CN[C@@H](C)C(=O)N[C@H](C(=O)N1Cc2cc(OCCCCCNC(=O)CNc3ccc4c(c3)C(=O)N(C3CCC(=O)NC3=O)C4=O)ccc2C[C@H]1C(=O)N[C@@H]1CCCc2ccccc21)C(C)(C)C (some centres undefined)	87%	65%	100%	100%	91%	92%	inactive	–
